From PubChem BioAssay (NCI)
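Protocol summary: plate cells (96-well), add compound at 5 concentrations, incubate 48 h, interpolate endpoints linearly. The concentration for full growth arrest is given as TGI.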

Columns and labels:
Experiment in all cases: NCI tumour cell line growth inhibition, 48 h
MDA-N = test system: MDA-N
NCI-H460 lung = test system: NCI-H460 lung
UO-31 renal = test system: UO-31 renal
T-47D breast = test system: T-47D breast
ACHN renal = test system: ACHN renal
786-0 renal = test system: 786-0 renal
SNB-19 CNS = test system: SNB-19 CNS
UACC-62 melanoma = test system: UACC-62 melanoma
U251 CNS = test system: U251 CNS
SF-295 CNS = test system: SF-295 CNS
OVCAR-3 ovarian = test system: OVCAR-3 ovarian
PC-3 prostate = test system: PC-3 prostate
HOP-62 NSCLC = test system: HOP-62 NSCLC
CCRF-CEM leukemia = test system: CCRF-CEM leukemia
NCI/ADR-RES ovarian = test system: NCI/ADR-RES ovarian
SF-268 CNS = test system: SF-268 CNS
MDA-MB-435 = test system: MDA-MB-435
IGROV1 ovarian = test system: IGROV1 ovarian
NCI-H23 lung = test system: NCI-H23 lung
MCF7 breast = test system: MCF7 breast
HCT-116 colon = test system: HCT-116 colon
SR leukemia = test system: SR leukemia
M14 melanoma = test system: M14 melanoma
NCI-H522 lung = test system: NCI-H522 lung
K-562 leukemia = test system: K-562 leukemia
HT29 colon = test system: HT29 colon
LOX IMVI melanoma = test system: LOX IMVI melanoma
CAKI-1 renal = test system: CAKI-1 renal
SNB-75 CNS = test system: SNB-75 CNS
HCC-2998 colon = test system: HCC-2998 colon
SK-MEL-28 melanoma = test system: SK-MEL-28 melanoma
OVCAR-4 ovarian = test system: OVCAR-4 ovarian
DU-145 prostate = test system: DU-145 prostate
EKVX NSCLC = test system: EKVX NSCLC
MALME-3M melanoma = test system: MALME-3M melanoma
SK-OV-3 ovarian = test system: SK-OV-3 ovarian
HOP-92 NSCLC = test system: HOP-92 NSCLC
RXF 393 renal = test system: RXF 393 renal
SW-620 colon = test system: SW-620 colon
KM12 colon = test system: KM12 colon
SK-MEL-5 melanoma = test system: SK-MEL-5 melanoma
SN12C renal = test system: SN12C renal
HL-60(TB) leukemia = test system: HL-60(TB) leukemia
RPMI-8226 leukemia = test system: RPMI-8226 leukemia
A549 NSCLC = test system: A549 NSCLC
SF-539 CNS = test system: SF-539 CNS
SK-MEL-2 melanoma = test system: SK-MEL-2 melanoma
TK-10 renal = test system: TK-10 renal
COLO 205 colon = test system: COLO 205 colon
MDA-MB-231 breast = test system: MDA-MB-231 breast
NCI-H226 lung = test system: NCI-H226 lung
A498 renal = test system: A498 renal
MOLT-4 leukemia = test system: MOLT-4 leukemia
UACC-257 melanoma = test system: UACC-257 melanoma
HS 578T breast = test system: HS 578T breast
HCT-15 colon = test system: HCT-15 colon
OVCAR-8 ovarian = test system: OVCAR-8 ovarian
OVCAR-5 ovarian = test system: OVCAR-5 ovarian
BT-549 breast = test system: BT-549 breast

SMILES: CC(=O)CC(O)(C(F)(F)Cl)C(F)(F)Cl
- TGI (MDA-N): > 10 µM
- TGI (NCI-H460 lung): > 10 µM
- TGI (UO-31 renal): > 10 µM
- TGI (T-47D breast): > 10 µM
- TGI (ACHN renal): > 10 µM
- TGI (786-0 renal): > 10 µM
- TGI (SNB-19 CNS): > 10 µM
- TGI (UACC-62 melanoma): > 10 µM
- TGI (U251 CNS): > 10 µM
- TGI (SF-295 CNS): > 10 µM
- TGI (OVCAR-3 ovarian): > 10 µM
- TGI (PC-3 prostate): > 10 µM
- TGI (HOP-62 NSCLC): > 10 µM
- TGI (CCRF-CEM leukemia): > 10 µM
- TGI (NCI/ADR-RES ovarian): > 10 µM
- TGI (SF-268 CNS): > 10 µM
- TGI (MDA-MB-435): > 10 µM
- TGI (IGROV1 ovarian): > 10 µM
- TGI (NCI-H23 lung): > 10 µM
- TGI (MCF7 breast): > 10 µM
- TGI (HCT-116 colon): > 10 µM
- TGI (SR leukemia): > 10 µM
- TGI (M14 melanoma): > 10 µM
- TGI (NCI-H522 lung): > 10 µM
- TGI (K-562 leukemia): > 10 µM
- TGI (HT29 colon): > 10 µM
- TGI (LOX IMVI melanoma): > 10 µM
- TGI (CAKI-1 renal): > 10 µM
- TGI (SNB-75 CNS): > 10 µM
- TGI (HCC-2998 colon): > 10 µM
- TGI (SK-MEL-28 melanoma): > 10 µM
- TGI (OVCAR-4 ovarian): > 10 µM
- TGI (DU-145 prostate): > 10 µM
- TGI (EKVX NSCLC): > 10 µM
- TGI (MALME-3M melanoma): > 10 µM
- TGI (SK-OV-3 ovarian): > 10 µM
- TGI (HOP-92 NSCLC): > 10 µM
- TGI (RXF 393 renal): > 10 µM
- TGI (SW-620 colon): > 10 µM
- TGI (KM12 colon): > 10 µM
- TGI (SK-MEL-5 melanoma): > 10 µM
- TGI (SN12C renal): > 10 µM
- TGI (HL-60(TB) leukemia): > 10 µM
- TGI (RPMI-8226 leukemia): > 10 µM
- TGI (A549 NSCLC): > 10 µM
- TGI (SF-539 CNS): > 10 µM
- TGI (SK-MEL-2 melanoma): > 10 µM
- TGI (TK-10 renal): > 10 µM
- TGI (COLO 205 colon): > 10 µM
- TGI (MDA-MB-231 breast): > 10 µM
- TGI (NCI-H226 lung): > 10 µM
- TGI (A498 renal): > 10 µM
- TGI (MOLT-4 leukemia): > 10 µM
- TGI (UACC-257 melanoma): > 10 µM
- TGI (HS 578T breast): > 10 µM
- TGI (HCT-15 colon): > 10 µM
- TGI (OVCAR-8 ovarian): > 10 µM

SMILES: O=C1CC[C@@]2(O)[C@H]3Cc4ccc(-c5cccc(O)c5)c5c4[C@@]2(CCN3CC2CC2)[C@H]1O5
- TGI (MDA-N): 30.9 µM
- TGI (NCI-H460 lung): 29.2 µM
- TGI (UO-31 renal): 42.7 µM
- TGI (ACHN renal): > 85.9 µM
- TGI (786-0 renal): 36.6 µM
- TGI (SNB-19 CNS): > 100 µM
- TGI (UACC-62 melanoma): 28.2 µM
- TGI (U251 CNS): 25.1 µM
- TGI (SF-295 CNS): 43.9 µM
- TGI (OVCAR-3 ovarian): 43.9 µM
- TGI (PC-3 prostate): > 91.2 µM
- TGI (HOP-62 NSCLC): 66.2 µM
- TGI (CCRF-CEM leukemia): 0.513 µM
- TGI (NCI/ADR-RES ovarian): 53.2 µM
- TGI (OVCAR-5 ovarian): > 80.3 µM
- TGI (SF-268 CNS): 67.1 µM
- TGI (MDA-MB-435): 27.8 µM
- TGI (IGROV1 ovarian): > 89.6 µM
- TGI (NCI-H23 lung): > 84 µM
- TGI (MCF7 breast): > 92.4 µM
- TGI (HCT-116 colon): 38.6 µM
- TGI (SR leukemia): 66.9 µM
- TGI (M14 melanoma): 26.2 µM
- TGI (NCI-H522 lung): 30.9 µM
- TGI (K-562 leukemia): 47 µM
- TGI (HT29 colon): 33.4 µM
- TGI (LOX IMVI melanoma): 27.2 µM
- TGI (CAKI-1 renal): > 100 µM
- TGI (HCC-2998 colon): 34.1 µM
- TGI (BT-549 breast): 76.6 µM
- TGI (SK-MEL-28 melanoma): > 100 µM
- TGI (OVCAR-4 ovarian): > 100 µM
- TGI (DU-145 prostate): > 100 µM
- TGI (EKVX NSCLC): > 30.4 µM
- TGI (HOP-92 NSCLC): 80.8 µM
- TGI (RXF 393 renal): 52.7 µM
- TGI (SW-620 colon): > 55.6 µM
- TGI (KM12 colon): 57.5 µM
- TGI (SK-MEL-5 melanoma): 31.2 µM
- TGI (SN12C renal): > 83.3 µM
- TGI (HL-60(TB) leukemia): 4.92 µM
- TGI (RPMI-8226 leukemia): 52.1 µM
- TGI (A549 NSCLC): > 100 µM
- TGI (SF-539 CNS): 36.6 µM
- TGI (SK-MEL-2 melanoma): 24.8 µM
- TGI (TK-10 renal): 47 µM
- TGI (COLO 205 colon): 43.3 µM
- TGI (MDA-MB-231 breast): 46.9 µM
- TGI (NCI-H226 lung): 90.2 µM
- TGI (A498 renal): 48.3 µM
- TGI (MOLT-4 leukemia): 56.4 µM
- TGI (UACC-257 melanoma): 26.5 µM
- TGI (HCT-15 colon): 71.3 µM
- TGI (OVCAR-8 ovarian): 44.4 µM

SMILES: O=C1c2ccccc2C2=Cc3ccccc3C(O)N12 (centres undefined)
- TGI (MDA-N): > 100 µM
- TGI (NCI-H460 lung): > 100 µM
- TGI (UO-31 renal): 35 µM
- TGI (T-47D breast): > 100 µM
- TGI (ACHN renal): > 100 µM
- TGI (786-0 renal): > 100 µM
- TGI (SNB-19 CNS): > 100 µM
- TGI (UACC-62 melanoma): 65.3 µM
- TGI (U251 CNS): > 100 µM
- TGI (SF-295 CNS): > 100 µM
- TGI (OVCAR-3 ovarian): > 100 µM
- TGI (PC-3 prostate): > 100 µM
- TGI (HOP-62 NSCLC): > 100 µM
- TGI (CCRF-CEM leukemia): > 100 µM
- TGI (NCI/ADR-RES ovarian): > 100 µM
- TGI (OVCAR-5 ovarian): > 100 µM
- TGI (SF-268 CNS): > 100 µM
- TGI (MDA-MB-435): > 100 µM
- TGI (IGROV1 ovarian): > 100 µM
- TGI (NCI-H23 lung): > 100 µM
- TGI (MCF7 breast): > 100 µM
- TGI (HCT-116 colon): > 100 µM
- TGI (SR leukemia): 83.5 µM
- TGI (M14 melanoma): > 100 µM
- TGI (NCI-H522 lung): 40.8 µM
- TGI (K-562 leukemia): > 100 µM
- TGI (HT29 colon): > 100 µM
- TGI (LOX IMVI melanoma): > 100 µM
- TGI (CAKI-1 renal): 43.2 µM
- TGI (SNB-75 CNS): > 100 µM
- TGI (HCC-2998 colon): > 100 µM
- TGI (SK-MEL-28 melanoma): > 100 µM
- TGI (OVCAR-4 ovarian): > 100 µM
- TGI (DU-145 prostate): > 100 µM
- TGI (EKVX NSCLC): > 100 µM
- TGI (MALME-3M melanoma): > 100 µM
- TGI (SK-OV-3 ovarian): > 100 µM
- TGI (HOP-92 NSCLC): > 100 µM
- TGI (RXF 393 renal): 83.8 µM
- TGI (SW-620 colon): > 100 µM
- TGI (KM12 colon): > 100 µM
- TGI (SK-MEL-5 melanoma): > 100 µM
- TGI (SN12C renal): > 100 µM
- TGI (HL-60(TB) leukemia): 64.1 µM
- TGI (RPMI-8226 leukemia): > 100 µM
- TGI (A549 NSCLC): > 100 µM
- TGI (SF-539 CNS): > 100 µM
- TGI (SK-MEL-2 melanoma): > 100 µM
- TGI (TK-10 renal): > 100 µM
- TGI (COLO 205 colon): > 100 µM
- TGI (MDA-MB-231 breast): > 100 µM
- TGI (NCI-H226 lung): > 100 µM
- TGI (A498 renal): > 100 µM
- TGI (MOLT-4 leukemia): 91.9 µM
- TGI (UACC-257 melanoma): > 100 µM
- TGI (HS 578T breast): > 100 µM
- TGI (HCT-15 colon): > 100 µM
- TGI (OVCAR-8 ovarian): > 100 µM
